Experimental data taken from patent publication US5100880A, “Novel betalactam elastase inhibitors containing phosphorous acid derivatives at the 4-position of the 2-azetidinone” (Merck & Co., Inc., priority 1991, dated 1992).

Molecular target: T1, human granulocyte elastase (Homo sapiens, UniProt P08246)
T1 construct: Crude extract of human polymorphonuclear leukocytes (PMN) containing elastase activity; endogenous in cells; host or cells: human polymorphonuclear leukocytes (PMN), crude extract
T1 sequence (P08246 30-247 limits assumed): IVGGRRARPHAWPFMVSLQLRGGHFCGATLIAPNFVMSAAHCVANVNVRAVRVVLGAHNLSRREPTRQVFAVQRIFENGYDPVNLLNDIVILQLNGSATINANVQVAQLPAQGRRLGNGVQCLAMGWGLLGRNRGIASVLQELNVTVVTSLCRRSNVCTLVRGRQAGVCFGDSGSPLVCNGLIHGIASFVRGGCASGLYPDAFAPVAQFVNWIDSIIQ
Assay: Inhibition of human polymorphonuclear leukocyte elastase via hydrolysis of Boc-AAPAN or Boc-AAPVN
Format: biochemical
Conditions: crude extract of human PMN; 0.05M TES buffer pH 7.5; substrate 0.2 mM Boc-AAPAN or Boc-AAPVN; read-out: kobs /I, second order rate constant for inactivation of the enzyme
Method: Enzyme Assays for the Inhibition of Human Polymorphonuclear Leukocyte Elastase Via Hydrolysis of N-t-Boc-alanyl-alanyl-prolylalanine-p-nitroanilide (Boc-AAPAN) or N-t-Boc-alanyl-prolylvaline-p-nitroanilide (Boc-AAPVN) Reagent
0.05M TES (N-tris[hydroxymethyl]methyl-2-amino-ethanesulfonic acid) Buffer, pH 7.5.
0.2 mM Boc-AAPAN or Boc-AAPVN.
To prepare substrate, the solid was first dissolved in 10.0 ml DMSO. Buffer at pH 7.5 was then added to a final volume of 100 ml.
Crude extract of human polymorphonuclear leukocytes (PMN) containing elastase activity.
Inhibitors (azetidinones) to be tested dissolved in DMSO just before use.
To 1.0 ml of 0.2 mM Boc-AAPAN in a cuvette, 0.01-0.1 ml of DMSO with or without inhibitor was added. After mixing, a measurement was taken at 410 mμ to detect any spontaneous hydrolysis due to presence of test compound. 0.05 Milliliters of PMN extract was then added and the ΔOD/min at 410 mμ was measured and recorded. Beckman model 35 spectrophotometer was used.
Results are also expressed as Ki, the micromolar concentration of the inhibitor (μM) giving 50% of the control enzyme activity; or as ^k obs/I which is the second order rate constant in per mole per second for inactivation of the enzyme.
The elastase activity in the crude PMN extract may vary from one preparation to another. […]

Structure (SMILES) | kinact/KI
CCCC(NC(=O)N1C(=O)C(CC)(CC)C1Oc1ccc(CP(=O)(OCC)OCC)cc1)c1ccc(C)cc1 [Example 1, (4S)-3,3-Diethyl-1-[(R)-α-n-propyl(4-methyl)-benzylaminocarbonyl)]-4-[4-(diethoxyphosphinylmethyl)-phenoxy]-azetidin-2-one] | 1.2e+06 M⁻¹ s⁻¹
CCCC(NC(=O)N1C(=O)C(CC)(CC)C1Oc1ccc(CP(=O)(O)O)cc1)c1ccc(C)cc1 [Example 2, (4S)-3,3-Diethyl-1-[(R)-α-n-propyl-(4-methyl)-benzylaminocarbonyl)]-4-[4-(dihydroxyphosphinylmethyl)phenoxy]-azetidin-2-one] | 220000 M⁻¹ s⁻¹
